Results on two substances are retold here after patent publication US10383931B2, “Peptides and combination of peptides for use in immunotherapy against cancers” (IMMATICS BIOTECHNOLOGIES GMBH, priority 2016, dated 2019).

The experiment addresses HLA-A*02:01 (Homo sapiens, UniProt P04439, D140Y/D185E/D98H/E176V/E277Q/G131W/G231S/I119V/I121R/I166T/I218V/L300P/L318F/N151K/N90K/P208A/P217A/Q86G/Q94H/R138H/R169H/T345S). Put plainly: ELISA-based assay of affinity (KD) to HLA-A*02:01. Conditions: FIG. 5. Format: binding. (In general: ELISA stands for enzyme-linked immunosorbent assay.)

Take “KIQEILTQV [IGF2BP3-001, HLA-A*02-presented tumor-associated peptide]”: the “binding to HLA-A*02:01 (dissociation constant KD, in words)” value is recorded as “very good binding”.

Take “MET-001: control peptide, strong binder to HLA-A*02:01 (YVDPVITSI)”: the “binding to HLA-A*02:01 (dissociation constant KD, in words)” value was “strong binder”.
